Patent US20260115183A1, “METHOD AND COMPOSITION FOR PROTECTING OR IMPROVING OVARIAN FUNCTION IN MAMMALS” (NANJING NUTRABUILDING BIO-TECH CO., LTD., priority 2023, published 2026)

How the values were obtained:
Female Wistar rats [1] = test: HOMA-IR index from fasting insulin and fasting blood glucose; type: in vivo; details: calculated from fasting blood glucose and fasting insulin; Model group 12.5
Method: (§1) Female Wistar rats weighing 220-230 g were selected, and all rats were free to eat. One week later, without any intervention, they were randomly divided into control group CK (n=10; Placebo); Model group MD (n=10; Placebo); Experimental group A (n=10; Ergothioneine 2.25 mg/kg/d); Experimental group B (n=10; Ergothioneine 2.25 mg/kg/d+Pyrroloquinoline quinone 1.8 mg/kg/d); Experimental group C (n=10; Ergothioneine 2.25 mg/kg/d+Pyrroloquinoline quinone 1.8 mg/kg/d+Oenothera biennis 18 mg/kg/d+inositol 9 mg/kg/d). Four groups of rats were injected with testosterone propionate (10 mg/kg, once a day for 6 weeks) and olive oil continuously. Administration was performed by gavage.
(§2) OGTT, insulin, HOMA-IR and blood lipid were measured in each group at the last week of gavage. After fasting for 16 h, fasting blood glucose (0 min) was measured. Subsequently, rats were intraperitoneally injected with 50% glucose solution (2 g/kg). At each time point (0 min, 30 min, 60 min, 120 min), the blood glucose of rats was measured by glucose oxidase method. […] Serum total cholesterol (TC) and total triglyceride (TG) were detected by total cholesterol detection kit and triglyceride detection kit.
(§3) Graphpad 8.0 software was used to analyze the data, and the result data was expressed as standard deviation (x±s), and the significance was analyzed by one-way ANOVA test.

Female Wistar rats [2] = test: Serum total cholesterol (TC) and total triglyceride (TG) detection; details: rat, in vivo
Method: Female Wistar rats weighing 220-230 g were selected, and all rats were free to eat. One week later, without any intervention, they were randomly divided into control group CK (n=10; Placebo); Model group MD (n=10; Placebo); Experimental group A (n=10; Ergothioneine 2.25 mg/kg/d); Experimental group B (n=10; Ergothioneine 2.25 mg/kg/d+Pyrroloquinoline quinone 1.8 mg/kg/d); Experimental group C (n=10; Ergothioneine 2.25 mg/kg/d+Pyrroloquinoline quinone 1.8 mg/kg/d+Oenothera biennis 18 mg/kg/d+inositol 9 mg/kg/d). Four groups of rats were injected with testosterone propionate (10 mg/kg, once a day for 6 weeks) and olive oil continuously. Administration was performed by gavage. Gavage intervention in each group lasted for 8 weeks. […] OGTT, insulin, HOMA-IR and blood lipid were measured in each group at the last week of gavage. After fasting for 16 h, fasting blood glucose (0 min) was measured. […] At each time point (0 min, 30 min, 60 min, 120 min), the blood glucose of rats was measured by glucose oxidase method. […] Serum total cholesterol (TC) and total triglyceride (TG) were detected by total cholesterol detection kit and triglyceride detection kit. Graphpad 8.0 software was used to analyze the data, and the result data was expressed as standard deviation (x±s), and the significance was analyzed by one-way ANOVA test.

Female Wistar rats [3] = test: Serum hormone determination (T, E2, LH, FSH) by ELISA in rats injected with testosterone propionate; type: in vivo; details: after 8 weeks of gavage intervention
Method: Female Wistar rats weighing 220-230 g were selected, and all rats were free to eat. One week later, without any intervention, they were randomly divided into control group CK (n=10; Placebo); Model group MD (n=10; Placebo); Experimental group A (n=10; Ergothioneine 2.25 mg/kg/d); Experimental group B (n=10; Ergothioneine 2.25 mg/kg/d+Pyrroloquinoline quinone 1.8 mg/kg/d); Experimental group C (n=10; Ergothioneine 2.25 mg/kg/d+Pyrroloquinoline quinone 1.8 mg/kg/d+Oenothera biennis 18 mg/kg/d+inositol 9 mg/kg/d). Four groups of rats were injected with testosterone propionate (10 mg/kg, once a day for 6 weeks) and olive oil continuously. Administration was performed by gavage. Gavage intervention in each group lasted for 8 weeks. Finally, the rats were anesthetized with 1% pentobarbital sodium, and the rats were killed when they were estrus after fasting for 16 h. Blood was collected through abdominal aorta, and the serum was taken after centrifugation at 4° C. for 15 min at a speed of 1000 g. Hormone determination: Serum total testosterone T, luteinizing hormone LH, follicle stimulating hormone FSH and estradiol E2 were determined by ELISA. […] Graphpad 8.0 software was used to analyze the data, and the result data was expressed as standard deviation (x±s), and the significance was analyzed by one-way ANOVA test.

Female Wistar rats [4] = test: OGTT blood glucose by glucose oxidase method in rats injected with testosterone propionate; type: in vivo; details: different time points within 120 min, last week of gavage
Method: as §1, §2, §3

SMILES: C[N+](C)(C)[C@@H](Cc1c[nH]c(=S)[nH]1)C(=O)[O-] [Experimental group A, Ergothioneine]
- HMOA-IR index (Female Wistar rats [1]): 11.3
- content of TC in serum compared with the Model group (Female Wistar rats [2]): significantly reduce
- content of TG in serum compared with the Model group (Female Wistar rats [2]): significantly reduce
- serum E2 compared with the Model group (Female Wistar rats [3]): decreased significantly
- serum T compared with the Model group (Female Wistar rats [3]): decreased significantly
- blood glucose levels compared with the Model group (Female Wistar rats [4]): decreased significantly
